# In patent publication US20250302743A1, “METHODS OF TREATING DERMATOLOGICAL CONDITIONS AND SYMPTOMS THEREOF” (KAMARI PHARMA LTD., priority 2022, published 2025):
# Assays:
# [1] = test system: DS-Nh mice; assay: DS-Nh mouse model, topical dosing (scratching behavior, skin histology); format: in vivo
# From the text: DS-Nh mice raised under conventional conditions spontaneously develop dermatitis and skin abnormalities characterized by hyperkeratosis, reduced basal keratinocytes proliferation, defective differentiation, and keratinization of skin appendages.
# At the end of the study, the mice were sacrificed, and skin biopsies were paraffin-embedded, stained with hematoxylin and eosin (H&E) and assessed microscopically (FIG. 7).
# [2] = Estimated human systemic exposure and safety margins (dose-linear extrapolation from minipig PK)
# Procedure: (§1) I: Blood concentrations of KM-001 were evaluated using a validated analytical method as part of the toxicity studies in minipigs and rats.
# [3] = Plasma concentration in AEW pruritus study, oral dosing; format: in vivo, mouse; settings: mice, oral 0.1 mg/kg
# Procedure: (§2) The efficacy of KM-001 was assessed in an acetone-ether-water (AEW)-induced pruritus model in male C57BL/6J mice, a model induced by daily treatment of an acetone/ether (1:1) mixture and water applied to the animal's cheek. KM-001 (10 mg/kg, 1 mg/kg, 0.1 mg/kg and 0.01 mg/kg) was administered orally to 20 mice. The amount of time spent scratching and the number of bouts during the 20 minutes were recorded by an observer. Blood and skin samples were collected at 0, 0.5 hr, 1 hr and 1.5 hr post dosing.
# [4] = Saturated solubility, shake flask method, UPLC-UV; format: physicochemical; settings: for Saturated Solubility API: RT, 24 hours
# Procedure: Saturated solubility was determined using the shake flask method with excess API at room temperature (RT). It was assumed that equilibrium was attained after 24 hours, and excess solid was separated by ultrafiltration prior to dilution and quantification. Quantification of KM-001 for saturated solubility studies was performed using a qualified UPLC-UV analytical method.
# [5] = test system: male C57BL/6J mice; assay: Acetone-ether-water (AEW)-induced pruritus model, oral dosing; format: in vivo, mouse
# Procedure: as §2
# [6] = Blood concentrations in minipig dermal toxicity study (13 weeks); format: in vivo; settings: for AUC0-tlast / Cmax: MiniPig, 6 g/day
# Procedure: as §1
# [7] = molecular target: TRPV3 (Homo sapiens, UniProt Q8NET8); settings: read-out: IC50 (inhibit TRPV3); found in US 2002/0332697 A1; cited from earlier work
# Sequence of TRPV3 (Q8NET8 whole entry, species assumed): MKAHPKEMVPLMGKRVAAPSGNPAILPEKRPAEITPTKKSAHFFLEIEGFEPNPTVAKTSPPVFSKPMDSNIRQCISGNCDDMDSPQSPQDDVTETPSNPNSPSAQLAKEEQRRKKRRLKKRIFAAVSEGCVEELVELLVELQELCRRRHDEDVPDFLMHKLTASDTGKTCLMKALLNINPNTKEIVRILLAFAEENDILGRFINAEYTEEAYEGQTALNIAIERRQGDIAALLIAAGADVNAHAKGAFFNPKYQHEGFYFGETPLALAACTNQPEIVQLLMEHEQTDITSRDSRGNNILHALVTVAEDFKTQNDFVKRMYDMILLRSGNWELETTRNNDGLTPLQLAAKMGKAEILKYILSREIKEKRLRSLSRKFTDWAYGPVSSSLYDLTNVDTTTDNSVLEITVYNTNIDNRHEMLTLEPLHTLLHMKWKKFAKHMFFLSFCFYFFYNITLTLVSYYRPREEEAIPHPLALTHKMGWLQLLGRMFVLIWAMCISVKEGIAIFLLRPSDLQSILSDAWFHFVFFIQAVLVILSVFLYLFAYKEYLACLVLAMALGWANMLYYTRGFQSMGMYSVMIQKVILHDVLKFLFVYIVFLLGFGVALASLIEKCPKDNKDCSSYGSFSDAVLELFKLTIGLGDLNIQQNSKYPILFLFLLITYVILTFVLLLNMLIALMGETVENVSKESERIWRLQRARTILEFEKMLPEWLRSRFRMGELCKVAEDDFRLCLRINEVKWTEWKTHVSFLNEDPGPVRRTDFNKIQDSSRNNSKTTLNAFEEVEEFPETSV
# [8] = 28-day oral repeat dose toxicity study, systemic exposure; format: in vivo, rat; settings: for AUC0-tlast / Cmax: Rat, oral
# Procedure: as §1
# [9] = test system: keratinocytes; settings: found in US 2002/0332697 A1, cited from earlier work
# [10] = 0.5% formulation, 2.25 mg/kg*day, Week 13
# [11] = 1.0% formulation, 4.5 mg/kg*day, Week 13
compound,measurement,setting,value
"C=CC[C@@H]1/C=C(\C)C[C@H](C)C[C@H](OC)[C@H]2O[C@@](O)(C(=O)C(=O)N3CCCC[C@H]3C(=O)O[C@H](/C(C)=C/[C@@H]3CC[C@@H](O)[C@H](OC)C3)[C@H](C)[C@@H](O)CC1=O)[C@H](C)C[C@@H]2OC [tacrolimus 0.1%, tacrolimus]",reduction in scratch,"[1]; day 14, twice daily topical treatment",20%
same,mice exhibiting normalization of skin pathology,"[1]; two weeks of treatment, H&E histology, partial normalization for tacrolimus",40 % of mice
"(S)-2-(1,3-dimethyl-2-6-dioxo-2,3-1h-purin-7(6H)-N-(4-(3-Fluoro-4-2methylpyrrolidin-1-yl)phenyl)thiazol-2-yl)acetamide [KM-001]","safety margin for AUC, rat vs estimated human exposure",[2]; 0.3%,836 fold
same,"AUC, estimated human systemic exposure",[2]; 0.3% cream,approx. 10 ng/mL*h
same,"safety margin for AUC, rat vs estimated human exposure",[2]; 1%,261 fold
same,"AUC, estimated human systemic exposure",[2]; 1% cream,~32 ng·h/mL
same,"safety margin for Cmax, rat vs estimated human exposure",[2]; 1% cream-gel,approx. 242 fold
same,Dose MiniPig API (safety factor),[2]; Human dermal 0.3% formulation vs minipig dose,34
same,Dose MiniPig API (safety factor),[2]; Human dermal 1.0% formulation vs minipig dose,11
same,maximum plasma concentration (Cmax),[3],1.34 ng/mL
same,solubility in triglycerides and fatty alcohols,[4],relatively soluble
same,Saturated Solubility API,"[4]; M1: Miglyol 812 N 33.3%, Arlamol E 62.5%, Phenoxy-2-ethanol 4.2%",13.1 % w/w
same,Saturated Solubility API,"[4]; M2: Miglyol 812 N 8%, Arlamol E 15%, Macrol-82 77%",0.7 % w/w
same,Saturated Solubility API,"[4]; M3: Miglyol 812 N 10%, Kollicream OD 10%, Macrol-82 75%, Kollicream OA 5%",1.5 % w/w
same,Saturated Solubility API,"[4]; M6: Miglyol 812 N 20%, Arlamol E 16%, Kollicream OA 10%, Macrol-82 54%",4.0 % w/w
same,Saturated Solubility API,"[4]; M10: Miglyol 812 N 20%, Crodamol IPM 21.85%, Kollicream OA 5%, Light Mineral Oil 53.15%",1.6 % w/w
same,Saturated Solubility API,"[4]; M13: Miglyol 812 N 47.83%, Kollicream OD 52.17%",13.0 % w/w
same,Saturated Solubility API,"[4]; M14: Miglyol 812 N 45.83%, Kollicream OD 50%, Phenoxy-2-ethanol 4.17%",14.0 % w/w
same,scratching bouts,[5]; oral 0.01 mg/kg,trended to decrease
same,scratching time,[5]; oral 0.01 mg/kg,trended to decrease
same,scratching time,"[5]; oral 0.1 mg/kg, p<0.001",significantly decreased
same,scratching bouts,"[5]; oral 0.1 mg/kg, p<0.01",significantly decreased
same,AUC0-tlast,"[6]; 0.1% formulation, 0.45 mg/kg*day, Week 13",16.6 ng·h/mL
same,Cmax,"[6]; 0.1% formulation, 0.45 mg/kg*day, Week 13, mean male and female",2.3 ng/mL
same,AUC0-tlast,[6]; [10],73.7 ng·h/mL
same,Cmax,[6]; [10],5.3 ng/mL
same,AUC0-tlast,[6]; [11],159 ng·h/mL
same,Cmax,[6]; [11],10.8 ng/mL
same,AUC,"[6]; minipigs, 4.5 mg KM-001/kg/day",159.1 ng·h/mL
same,IC50,[7],~3 nM
same,NOAEL,[8]; 28-day oral repeat dose toxicity study in the rat,10 mg/kg/day
same,AUC0-tlast,"[8]; 1 mg/kg*day, Day 28",479 ng·h/mL
same,Cmax,"[8]; 1 mg/kg*day, Day 28, mean male and female",97 ng/mL
same,AUC0-tlast,"[8]; 5 mg/kg*day, Day 28",4570 ng·h/mL
same,Cmax,"[8]; 5 mg/kg*day, Day 28",525 ng/mL
same,Cmax,"[8]; 10 mg/kg*day (NOAEL), Day 28",968 ng/mL
same,AUC0-tlast,"[8]; 10 mg/kg*day, Day 28",8360 ng·h/mL
same,AUC,"[8]; rat, 28-day oral repeat dose, at NOAEL of 10 mg/kg/day",8357 ng·h/mL
same,Ca^+2 flux in keratinocytes,[9],significantly reduced
same,differentiation markers,[9]; keratinocytes,normalized
